Where two headings read alike, the source gives them in different places.
Tests used:
[1] = Crossover PK study: plasma sumatriptan by LC/MS/MS after ID/junctional vs SC administration (Tmax, Cmax, AUC, relative F); assay type: in vivo, Yucatan miniswine; details: for rel. F 10 min / rel. F Total: compared to SC; for Cmax / AUC: minipig, plasma; for AUC: read-out: AUC 10 mm. (converted)
Description: Percent (%) relative Bioavailability (F) for each dosing condition was calculated compared to the SC condition: [formula]

[2] = system: Yorkshire Swine skin (injection site); details: pig, in vivo
Description: A total of 12 Yorkshire Swine (Archer Farms) were used. Each pig received one injection according to a randomization schedule (RS) once a day for a total of nine injections. Animals were not exposed to all possible injection combinations, because of the incomplete block design.
These skin sites were observed immediately upon removal of the device and at 30 minutes, 1, 2, 3, 4, 6, 8 and 24 hours and skin effects documented using the Draize Dermal Irritation method. […] Responder pigs were assigned to the following pig numbers on the randomization table in the following order: 1, 4, 2, 5, 3, and 6.
Syringe based microneedle systems: 30 gauge 1.5 mm ID needle with skin penetration limiter (Lot #E216801); 2 mm ID needle with limiter incorporating a 30 gauge ½ inch length needle with an ID bevel and a skin penetration limiter to allow 2 mm penetration; 3 mm needle with limiter incorporating a 30 gauge ½ inch length needle with a bevel and a skin penetration limiter to allow 3 mm penetration. All syringe based devices were connected to an accurate leur lock (LL) volumetric syringe for measuring the dose volume, and were administered in a bolus injection fashion using manual control of delivery rate.
During the delivery period, the microneedle array is held in place flat against the skin via an integral adhesive ring incorporated on the hub. The catheter hub is also connected via an integral length of medical grade tubing to a Leur inlet, which is in turn connected to a 1 ml syringe as the drug reservoir. The flow rate and delivery volume from the syringe are controlled via a programmable, highly accurate volumetric syringe pump.
Pigs were fasted for 12-18 hours prior to anesthesia. A mixture of Rompun® (2 mg/kg), Telazol® (4 mg/kg), and Ketamine (2 mg/kg) were given IM to sedate. Atropine (0.02 mg/kg) was given IM directly after sedation to avoid excessive salivation. Swine were masked down with Isoflurane if needed during the injection time.
TREATMENT DAY 1: The hair on both flanks of the pig were clipped and the skin wiped clean with chlorohexaderm scrub and alcohol. A clean, unblemished area was selected. Injection was performed according to a randomization schedule.
For 34-gauge catheter set devices, a BD 1 mL LL syringe and a Harvard syringe pump were used to control flow rate (100 μl/min). Devices remained in place for 1 minute following the injection. For 30-gauge syringe system, injections were performed over 50-60 seconds using manual rate control. After injection, photos were taken of skin effects. The skin site was marked with a permanent skin marker for later identification of site. Pigs were recovered in their runs.
TREATMENT DAY 2-9: All steps from Day 1 were repeated on alternate flanks of each pig following a pre-assigned randomization schedule.
The model included a pig effect, time effect, gauge, depth and solution main effects as well as all two-way interactions.

[3] = Yucatan miniswine, 1 × 1.5 mm × 30 g, 0 mg/ml
[4] = Yucatan miniswine, 1 × 2 mm × 30 g, 30 mg/ml
[5] = Yucatan miniswine, 1 × 3 mm × 30 g, 30 mg/ml
[6] = Yucatan miniswine, 3 × 2 mm × 34 g, 30 mg/ml
[7] = Yucatan miniswine, sc, 12 mg/ml
[8] = Yucatan, 3 × 3 mm × 34 g, 12 mg/ml

## CNS(=O)(=O)Cc1ccc2[nH]cc(CCN(C)C)c2c1 [sumatriptan, 3-[2-(dimethylamino)ethyl]-N-methyl-indole-5-methanesulfonamide]
[1]; 1 × 1.5 mm × 30 g, 0 mg/ml
  AUC total: 27696.167 ng·min/mL
  rel. F 10 min: 186.777%
  rel. F Total: 117.806%
[1]; 1 × 2 mm × 30 g, 30 mg/ml
  AUC total: 23548.167 ng·min/mL
  rel. F 10 min: 165.993%
  rel. F Total: 100.162%
[1]; 1 × 3 mm × 30 g, 30 mg/ml
  AUC total: 27335.167 ng·min/mL
  rel. F 10 min: 190.490%
  rel. F Total: 116.270%
[1]; 3 × 2 mm × 34 g, 30 mg/ml
  AUC total: 30006.000 ng·min/mL
  rel. F 10 min: 153.272%
  rel. F Total: 127.631%
[1]; 3 × 3 mm × 34 g, 12 mg/ml
  AUC total: 25642.833 ng·min/mL
  rel. F 10 min: 116.434%
  rel. F Total: 109.072%
[1]; 3 × 3 mm × 34 g, 30 mg/ml
  AUC total: 25947.667 ng·min/mL
  rel. F 10 min: 117.806%
  rel. F Total: 110.369%
[1]; IV, 12 mg/ml
  AUC total: 16626.000 ng·min/mL
  rel. F 10 min: 131.820%
  rel. F Total: 70.719%
[1]; Intradermal and/or junctional administration vs SC
  Maximum concentration levels at early time points: elevated
[1]; SC, 12 mg/ml
  AUC total: 23510.000 ng·min/mL
  rel. F 10 min: 100.000%
  rel. F Total: 100.000%
[1]; [3]
  Cmax: 824 ng/mL
  AUC: 84.7 ng·h/mL
[1]; [4]
  Cmax: 849 ng/mL
  AUC: 75.2 ng·h/mL
[1]; [5]
  Cmax: 837 ng/mL
  AUC: 86.4 ng·h/mL
[1]; [6]
  Cmax: 726 ng/mL
  AUC: 69.5 ng·h/mL
[1]; Yucatan miniswine, 3 × 3 mm × 34 g, 30 mg/ml
  Cmax: 649 ng/mL
[1]; [7]
  Cmax: 527 ng/mL
  AUC: 45.3 ng·h/mL
[1]; [8]
  Cmax: 706 ng/mL
  AUC: 52.8 ng·h/mL
[1]; Yucatan, 3 × 3 mm × 34 g, 30 mg/ml
  AUC: 53.4 ng·h/mL
[1]; Yucatan, iv, 12 mg/ml
  Cmax: 661 ng/mL
  AUC: 59.8 ng·h/mL
[2]; 4 h
  Erythema Mean: 0.1
  Erythema Median: 0.2
[2]; 6 h
  Edema Median: 0
[2]; 8 h
  Edema Median: 0
[2]; 24 h
  Edema Mean: 0.0
  Edema Median: 0
  Erythema Mean: 0.0
  Erythema Median: 0.0
